Key:
p75^NTR receptor [1] = molecular target: T1, p75^NTR receptor (Homo sapiens, UniProt P08138); assay: Binding of 125I NGF to the p75NTR receptor on SK-N-BE Bep 75 cell suspension; parameters: the whole form of the human p75^NTR receptor; expressed in transfected cells; host or cells: SK-N-BE (human neuroblastoma), clone Bep 75, hygromycin selection
T1 sequence (P08138 29-427): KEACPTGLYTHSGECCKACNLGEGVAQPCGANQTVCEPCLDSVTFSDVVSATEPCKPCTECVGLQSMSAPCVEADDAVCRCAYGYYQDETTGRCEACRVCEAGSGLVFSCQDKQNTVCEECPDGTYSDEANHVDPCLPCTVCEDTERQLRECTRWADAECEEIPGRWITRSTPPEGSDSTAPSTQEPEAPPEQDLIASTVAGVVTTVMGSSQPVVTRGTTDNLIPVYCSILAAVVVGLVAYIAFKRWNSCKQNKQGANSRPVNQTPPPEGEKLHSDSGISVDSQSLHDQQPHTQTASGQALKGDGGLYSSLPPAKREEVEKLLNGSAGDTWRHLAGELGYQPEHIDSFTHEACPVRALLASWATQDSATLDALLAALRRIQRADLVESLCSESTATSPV
Protocol: (§1) The parent strain SK-N-BE (human neuroblastoma) and the clone Bep 75, stably expressing the whole form of the human p75^NTR receptor (SK-N-BE Bep 75), are cultured conventionally in an RPMI culture medium containing FCS (5%), sodium pyruvate (1 mM) and glutamine (4 mM). For the SK-N-BE Bep 75 cells, hygromycin (200 μl/20 ml of medium) is added as selection agent.
Study of the binding of ^125I NGF to the p75^NTR receptor The study of NGF binding (nerve growth factor radiolabelled with iodine-125, Amersham—2000 Ci/mmol) is carried out on a cell suspension of the SK-N-BE Bep 75 strain in accordance with the method described by Weskamp (Neuron, 1991, 6, 649-663). The non-specific binding is determined by measuring the total binding after preincubation for one hour with cells at 37° C. in the presence of non-radiolabelled NGF (1 μM). The specific binding is calculated by the difference between the total binding measurement and the non-specific binding measurement. The competition experiments are carried out using an iodinated NGF (^125I NGF) concentration of 0.3 nM.

p75^NTR receptor [2] = molecular target: T1, p75^NTR receptor; assay: p75NTR receptor dimerisation independently of its ligand (soluble p75NTR-alkaline phosphatase binding to SK-N-BE Bep 75 cells); parameters: the whole form of the human p75^NTR receptor; expressed in transfected cells; host or cells: SK-N-BE Bep 75 cells (membrane receptor); HEK293 cells transfected for 48 h (secreted soluble fusion)
Protocol: as §1
Study of p75^NTR receptor dimerisation independently of its ligand The study of p75^NTR receptor dimerisation is carried out on a cell suspension of the SK-N-BE Bep 75 strain. The cells (2.5×10^4 cells/well) are placed in wells (96-well plate) for 24 h, and then preincubated for 1 h at 37° C. in the presence or absence of the compounds according to the invention. Supernatant, derived from culturing HEK293 human cells of renal origin expressing, after transfection for 48 h, and secreting a soluble form of the p75^NTR receptor (extracellular part of the receptor) coupled to an alkaline phosphatase, is then added at the final concentration of 10 nM. The quantification of the specific binding of the soluble p75^NTR receptor to the receptor present on SK-N-BE Bep 75 cells is determined by measuring the enzymatic alkaline phosphatase activity after incubation of the cells for 1 hour at 37° C. in the presence of the supernatant. After filtration and transfer of the filters into 24-well plates, the alkaline phosphatase activity is determined by adding CDP-Star chemiluminescent substrate (ready-to-use, Roche).

[3] = system: human neuroblastoma strains SH-SY-5Y and SK-N-BE Bep 75; assay: Measurement of apoptosis (NGF-induced, cell death detection ELISA); type: cell-based; conditions: SH-SY5Y, NGF 10 ng/ml, 48 h (SH-SY-5Y) or 24 h (SK-N-BE Bep 75), cell strain not given, read-out: IC50 of NGF-induced apoptosis inhibition
Protocol: The SH-SY-5Y strain (human neuroblastoma) is cultured conventionally in a DMEM culture medium (Dulbecco's Modified Eagle's Medium) (Gibco BRL, France) containing FCS (5%) (foetal calf serum) (Boehringer Mannheim, Germany), sodium pyruvate (1 mM) and glutamine (4 mM) in collagen-coated culture flasks (Becton Dickinson, France).
as §1
The cells (human neuroblastoma strains SH-SY-5Y and SK-N-BE Bep 75) are placed in Petri dishes 35 mm in diameter (Biocoat collagen I (10^5 cells/well)) in an appropriate culture medium containing 5% FCS for 24 h. The culture medium is then removed, the cells are rinsed with PBS (Dulbecco's Phosphate buffered saline), and then either fresh medium containing 5% FCS, or medium containing NGF (at the concentration of 10 ng/ml) or beta-amyloid peptide (Aβ1-40) (at the concentration of 10 μM) is added, in the presence or absence of the compounds according to the invention. The degrees of apoptosis are measured 48 hours after the treatments in the case of the SH-SY-5Y strain, and 24 hours after the treatments in the case of the SK-N-BE Bep 75 strain, by quantifying the cytoplasmic histones associated with DNA fragments (cell death detection ELISA, Boehringer Mannheim, Germany). The degrees of apoptosis are expressed as quantity of oligonucleosomes/10^5 cells. Each value corresponds to the mean of 9 experimental points distributed over 3 independent experiments.

SMILES | IC50 (p75^NTR receptor [1]) [nM] | IC50 (p75^NTR receptor [2]) [nM] | IC50 [3] [nM]
O=C(CN1CC2CCC(C1)N2c1ccc(C(F)(F)F)cn1)N1CC=C(c2cccc(C(F)(F)F)c2)CC1 [Compound No. 1, 1-[4-(3-trifluoromethylphenyl)-3,6-dihydro-2H-pyridin-1-yl]-2-[8-(5-trifluoromethylpyridin-2-yl)-3,8-diazabicyclo[3.2.1]oct-3-yl]ethanone] | 1.35 | 23.4 | 1.33
O=C(CN1CC2CCC(C1)N2c1ncccn1)N1CC=C(c2ccc(Cl)cc2)CC1 [Compound No. 2, 1-[4-(4-chlorophenyl)-3,6,-dihydro-2H-pyridin-1-yl]-2-(8-pyrimidin-2-yl-3,8-diazabicyclo[3.2.1]oct-3-yl)ethanone] | 0.18 |  | 
O=C(CN1C2CCC1CN(c1cnccn1)C2)N1CC=C(c2cccc(C(F)(F)F)c2)CC1 [Compound No. 3, 2-(3-pyrazin-2-yl-3,8-diazabicyclo[3.2.1]oct-8-yl)-1-[4-(3-trifluoromethylphenyl)-3,6-dihyro-2H-pyridin-1-yl]ethanone] |  | 0.05 | 0.067
O=C(CN1CC2CCC(C1)N2c1ccc(C(F)(F)F)cn1)N1CC=C(c2ccc(Cl)cc2)CC1 [Compound No. 7, 1-[4-(4-chlorophenyl)-3,6-dihydro-2H-pyridin-1-yl]-2-[8-(5-trifluoromethylpyridin-2-yl)-3,8-diazabicyclo[3.2.1]oct-3-yl]ethanone] | 0.29 |  | 
O=C(CN1CC2CCC(C1)N2c1ccc(C(F)(F)F)cn1)N1CC=C(c2ccc(Cl)c(C(F)(F)F)c2)CC1 [Compound No. 8, 1-[4-(4-chloro-3-trifluoromethylphenyl)-3,6-dihydro-2H-pyridin-1-yl]-2-[8-(5-trifluoromethylpyridin-2-yl)-3,8-diazabicyclo[3.2.1]oct-3-yl]ethanone] |  | 0.68 | 2.24
O=C(CN1CC2CCC(C1)N2c1ncc(F)cn1)N1CC=C(c2ccc(Cl)c(C(F)(F)F)c2)CC1 [Compound No. 11, 1-[4-(4-chloro-3-trifluoromethylphenyl)-3,6-dihydro-2H-pyridin-1-yl]-2-[8-(5-fluoropyrimidin-2-yl)-3,8-diazabicyclo[3.2.1]oct-3-yl]ethanone] | 0.98 | 0.2 | 0.21
O=C(CN1CC2CCC(C1)N2c1cccnc1)N1CC=C(c2ccc(Cl)c(C(F)(F)F)c2)CC1 [Compound No. 27, 1-[4-(4-chloro-3-trifluoromethylphenyl)-3,6-dihydro-2H-pyridin-1-yl]-2-(8-pyridin-3-yl-3,8-diazabicyclo[3.2.1]oct-3-yl)ethanone] |  | 0.23 | 0.088
COC(=O)c1ccc(N2C3CCC2CN(CC(=O)N2CC=C(c4ccc(Cl)c(C(F)(F)F)c4)CC2)C3)nc1 [Compound No. 28, 6-(3-{2-[4-(4-chloro-3-trifluoromethylphenyl)-3,6-dihydro-2H-pyridin-1-yl]-2-oxoethyl}-3,8-diazabicyclo[3.2.1]oct-8-yl)nicotinic acid methyl ester] |  | 9.84 | 
O=C(O)c1ccc(N2C3CCC2CN(CC(=O)N2CC=C(c4ccc(Cl)c(C(F)(F)F)c4)CC2)C3)nc1 [Compound No. 29, 6-(3-{2-[4-(4-chloro-3-trifluoromethylphenyl)-3,6-dihydro-2H-pyridin-1-yl]-2-oxoethyl}-3,8-diazabicyclo[3.2.1]oct-8-yl)nicotinic acid] |  | 0.14 | 0.22
COC(=O)c1cccc(C2=CCCN(C(=O)CN3CC4CCC(C3)N4c3ncc(F)cn3)C2)c1 [Compound No. 53, 3-(1-{2-[8-(5-fluoropyrimidin-2-yl)-3,8-diazabicyclo[3.2.1]oct-3-yl]acetyl}-1,2,5,6-tetrahydropyridin-3-yl)benzoic acid methyl ester] |  | 2.08 | 
